Laboratory results reported in US11091421B2, “Benzene fused heterocyclic derivative and pharmaceutical composition comprising the same” (TAIWANJ PHARMACEUTICALS CO., LTD., priority 2017, dated 2021).

Biological target: autotaxin (Homo sapiens, UniProt Q13822)
Experiment: Autotaxin inhibitor screening assay (phosphodiesterase activity, p-nitrophenol cleaved from bis-(p-nitrophenyl) phosphate, absorbance 410 nm)
Format: biochemical
Conditions: compound at 30 μM; BNPP 3 mM, pH 9.0, 37° C., 30 minutes
Experimental: As described above, the compounds in the present disclosure have the effect of inhibiting the activity of autotaxin, and can be used as autotaxin inhibitors. One method for inhibiting activity of autotaxin in environment is administering to the environment an effective amount of the compound of Formula (I). Please refer to the following experiment, the phosphodiesterase activity of autotaxin was measured using the p-nitrophenol that is a yellow product cleaved by autotaxin from the bis-(p-nitrophenyl) phosphate. Compound samples (10 μl) were incubated with autotaxin (10 μl) in a final volume of 200 μl assay buffer (5 mM CaCl2, 50 mM Tris-HCl, pH 9.0) containing bis-(p-nitrophenyl) phosphate (BNPP) at a final concentration of 3 mM at 37° C. After 30 minutes, absorbance at 410 nm of the reacted solution was measured. The percent inhibition for each test article (TA) (compound) was determined using the following equation. % Inhibition=(O.D.vehicle−O.D.TA)/O.D.vehicle×100

| Inhibition | Compound |
| --- | --- |
| B (50%~80% inhibition at 30 μM) | O=C1c2cc(O)ccc2CC1CC1CCN(C(=O)OCc2cc(Cl)cc(Cl)c2)CC1 (centres unmarked) [Compound 119] |

Same assay, conditions: pH 9

| Compound | inhibition at 30 µM [%] |
| --- | --- |
| O=C(Nc1ccc2c(c1)CC(Cc1ccc(C(=O)O)cc1)C2)OCc1ccccc1 (centres unmarked) [Compound 110] | 50 to 80 |

Same assay, conditions: pH 9, compound at 30 μM; BNPP 3 mM, pH 9.0, 37° C., 30 minutes; read-out: Inhibition

| Compound | inhibition at 30 µM [%] |
| --- | --- |
| O=C(O)c1ccc(COc2ccc3c(c2)C/C(=C\c2ccc(Cl)cc2)C3=O)cc1 [Compound 5] | > 80 |
| O=C1/C(=C/c2ccc(C(F)(F)F)cc2)Cc2ccc(OCc3ccc(F)c(F)c3)cc21 [Compound 6] | < 50 |
| O=C1/C(=C/c2cccc(C(F)(F)F)c2)Cc2ccc(OCc3ccc(F)c(F)c3)cc21 [Compound 7] | 50 to 80 |
| O=C(O)c1ccc(/C=C2\Cc3ccc(OCc4ccc(F)c(F)c4)cc3C2=O)cc1 [Compound 8] | < 50 |
| O=C(O)c1cccc(/C=C2\Cc3ccc(OCc4ccc(F)c(F)c4)cc3C2=O)c1 [Compound 9] | < 50 |
| O=C(O)c1ccc(/C=C2\Cc3cc(OCc4cc(F)c(F)cc4F)ccc3C2=O)cc1 [Compound 10] | < 50 |
| O=C(O)c1ccc(/C=C2\Cc3cccc(OCc4cc(F)c(F)cc4F)c3C2=O)cc1 [Compound 11] | 50 to 80 |
| O=C(O)c1ccc(COc2ccc3c(c2)C/C(=C\c2ccc(-c4ccc(F)cc4)cc2)C3=O)cc1 [Compound 12] | > 80 |
| O=C(O)c1ccc(COc2ccc3c(c2)C/C(=C\c2ccc(Cl)c(F)c2)C3=O)cc1 [Compound 13] | > 80 |
| O=C(O)c1ccc(COc2ccc3c(c2)C/C(=C\c2ccc(OCc4cc(F)c(F)cc4F)cc2)C3=O)cc1 [Compound 14] | > 80 |
| O=C(O)c1ccc(COc2ccc3c(c2)C/C(=C\c2ccc(OCc4cc(F)c(F)cc4F)c(F)c2)C3=O)cc1 [Compound 15] | 50 to 80 |
| O=C(O)c1ccc(COc2ccc3c(c2)C/C(=C\c2ccc(OCCOc4ccc(F)cc4F)cc2)C3=O)cc1 [Compound 16] | 50 to 80 |
| O=C(O)c1ccc(COc2ccc3c(c2)C/C(=C\CCc2cc(Cl)cc(Cl)c2)C3=O)cc1 [Compound 17] | > 80 |
| O=C(O)c1ccc(COc2ccc3c(c2)C/C(=C\c2cc(F)c(F)c(F)c2)C3=O)cc1 [Compound 18] | 50 to 80 |
| O=C(O)c1ccc(COc2ccc3c(c2)C/C(=C\c2ccc(Cl)cc2Cl)C3=O)cc1 [Compound 19] | > 80 |
| O=C(O)c1ccc(COc2ccc3c(c2)C/C(=C\c2cc(Cl)cc(Cl)c2)C3=O)cc1 [Compound 20, (E)-4-(((2-(3,5-dichlorobenzylidene)-1-oxo-2,3-dihydro-1H-inden-5-yl)oxy)methyl)benzoic acid] | > 80 |
| O=C(O)c1ccc(COc2ccc3c(c2)C/C(=C\c2cc(F)c(F)cc2F)C3=O)cc1 [Compound 21] | > 80 |
| O=C(Nc1ccc2c(c1)C/C(=C\c1cccc(C(F)(F)F)c1)C2=O)OCc1ccccc1 [Compound 26] | < 50 |
| O=C(Nc1ccc2c(c1)C/C(=C\c1ccc(C(F)(F)F)cc1)C2=O)OCc1ccccc1 [Compound 27] | < 50 |

| Compound | inhibition at 30 µM [%] |
| --- | --- |
| O=C(Nc1ccc2c(c1)C/C(=C\c1ccc(C(=O)O)cc1)C2=O)OCc1ccccc1 [Compound 28] | < 50 |
| O=C(NCc1cc(F)ccc1F)c1ccc(CC2Cc3cc(O)ccc3C2=O)cc1 (centres unmarked) [Compound 32] | < 50 |
| O=C(NCc1cc(F)ccc1F)c1ccc(/C=C2\Cc3cc(O)ccc3C2=O)cc1 [Compound 33] | 50 to 80 |
| O=C(OCc1cc(F)c(F)cc1F)c1ccc(CC2Cc3ccc(O)cc3C2=O)cc1 (centres unmarked) [Compound 34] | 50 to 80 |
| O=C(Nc1ccc2c(c1)C(=O)N(Cc1ccc(C(F)(F)F)cc1)C2=O)OCc1ccccc1 [Compound 38] | < 50 |
| O=C(O)c1ccc(CC2CCc3cc(OCc4cc(F)c(F)cc4F)ccc3C2=O)cc1 (centres unmarked) [Compound 44] | < 50 |
| O=C(NCCO)c1ccc(CC2CCc3cc(OCc4cc(F)c(F)cc4F)ccc3C2=O)cc1 (centres unmarked) [Compound 45] | 50 to 80 |
| O=C(O)c1ccc(/C=C2\CCc3c(OCc4cc(F)c(F)cc4F)cccc3C2=O)cc1 [Compound 46] | 50 to 80 |
| O=C(O)c1ccc(CC2CCc3c(OCc4cc(F)c(F)cc4F)cccc3C2=O)cc1 (centres unmarked) [Compound 47] | 50 to 80 |
| O=C(O)c1ccc(/C=C2\CCc3cc(OCCc4ccc(F)cc4)ccc3C2=O)cc1 [Compound 50] | 50 to 80 |
| O=C(O)c1ccc(CC2CCc3cc(OCCc4ccc(F)cc4)ccc3C2=O)cc1 (centres unmarked) [Compound 51] | > 80 |
| O=C(O)c1cc(CC2CCc3cc(OCCc4cc(F)ccc4F)ccc3C2=O)ccc1O (centres unmarked) [Compound 52] | 50 to 80 |
| O=C1c2ccc(OCCc3cc(F)ccc3F)cc2CCC1Cc1ccc(O)c(O)c1 (centres unmarked) [Compound 53] | > 80 |
| O=C(NCc1cc(F)ccc1F)c1ccc(CC2CCc3cc(O)ccc3C2=O)cc1 (centres unmarked) [Compound 56] | < 50 |
| O=C(OCc1cc(F)c(F)cc1F)c1ccc(CC2CCc3cc(O)ccc3C2=O)cc1 (centres unmarked) [Compound 57] | > 80 |
| O=C(OCc1ccc(F)c(F)c1)c1ccc(CC2CCc3cc(OCc4ccc(F)c(F)c4)ccc3C2=O)cc1 (centres unmarked) [Compound 58] | > 80 |
| O=C(NCc1ccc(F)c(F)c1)c1ccc(CC2CCc3cc(O)ccc3C2=O)cc1 (centres unmarked) [Compound 59] | 50 to 80 |
| O=C(NCCc1ccc(Cl)c(Cl)c1)c1ccc(CC2CCc3cc(O)ccc3C2=O)cc1 (centres unmarked) [Compound 60] | 50 to 80 |

The next lines start with the values.

| inhibition at 30 µM [%] | Compound |
| --- | --- |
| 50 to 80 | CN(Cc1cc(F)c(F)cc1F)C(=O)c1ccc(CC2CCc3cc(O)ccc3C2=O)cc1 (centres unmarked) [Compound 61] |
| > 80 | O=C(OCc1cc(F)ccc1F)c1ccc(CC2CCc3cc(OCc4cc(F)ccc4F)ccc3C2=O)cc1 (centres unmarked) [Compound 62] |
| > 80 | O=C(Nc1ccc(CC2CCc3cc(O)ccc3C2=O)cc1)OCc1ccc(Cl)c(Cl)c1 (centres unmarked) [Compound 68] |
| < 50 | O=C(Cc1ccc(F)c(F)c1)Nc1ccc(CC2CCc3cc(O)ccc3C2=O)cc1 (centres unmarked) [Compound 69] |
| > 80 | O=C(Nc1ccc(CC2CCc3cc(O)ccc3C2=O)cc1)OCc1cc(Cl)cc(Cl)c1 (centres unmarked) [Compound 70] |
| 50 to 80 | O=C(Nc1ccc(CC2CCc3cc(O)ccc3C2=O)cc1)OCc1cc(F)c(F)cc1F (centres unmarked) [Compound 71] |
| 50 to 80 | O=C(O)c1ccc(CN2CCc3cc(OCc4cc(F)c(F)cc4F)ccc3C2=O)cc1 [Compound 77] |
| 50 to 80 | O=C(CCc1ccc(CC2CCc3cc(O)ccc3C2=O)cc1)c1ccc(F)c(F)c1 (centres unmarked) [Compound 81] |
| > 80 | O=C1c2ccc(O)cc2CCC1CN1CCN(C(=O)OCc2cc(Cl)cc(Cl)c2)CC1 (centres unmarked) [Compound 85] |
| > 80 | COC(=O)c1ccc(COc2ccc3c(c2)C/C(=C\c2ccc(Cl)c(F)c2)C3=O)cc1 [Compound 88] |
| 50 to 80 | COC(=O)c1ccc(COc2ccc3c(c2)O/C(=C\c2ccc(F)c(F)c2)C3=O)cc1 [Compound 89] |
| 50 to 80 | O=C1/C(=C/c2ccc(C(F)(F)F)cc2)CCc2cc(OCc3ccc(F)c(F)c3)ccc21 [Compound 92] |
| 50 to 80 | O=C1/C(=C/c2cccc(C(F)(F)F)c2)CCc2cc(OCc3ccc(F)c(F)c3)ccc21 [Compound 93] |
| 50 to 80 | O=C(Nc1ccc(F)c(F)c1)c1ccc2c(c1)C(=O)N(Cc1cccc(C(F)(F)F)c1)C2=O [Compound 96] |
| < 50 | O=C1/C(=C/c2ccc(OCc3cc(F)c(F)cc3F)cc2)CCc2cc(O)ccc21 [Compound 99] |
| < 50 | O=C1/C(=C/c2ccc(OCCc3ccc(F)cc3)cc2)CCc2cc(O)ccc21 [Compound 100] |
| < 50 | O=C1/C(=C/c2ccc(OCCOc3ccc(F)cc3F)cc2)CCc2cc(O)ccc21 [Compound 101] |
| 50 to 80 | O=C1c2ccc(O)cc2CCC1Cc1ccc(OCCOc2ccc(F)cc2F)cc1 (centres unmarked) [Compound 102] |
| < 50 | O=C1c2cc(O)ccc2CC1CC1CCN(C(=O)OCc2cc(Cl)cc(Cl)c2)CC1 (centres unmarked) [Compound 117] |
| < 50 | O=C(Nc1ccc(CC2CCc3cc(O)ccc3C2=O)cc1)Nc1cc(Cl)cc(Cl)c1 (centres unmarked) [Compound 118] |
| > 80 | CNC(=O)c1ccc(COc2ccc3c(c2)C/C(=C\c2cc(Cl)cc(Cl)c2)C3=O)cc1 [Compound 120] |
| < 50 | CS(=O)(=O)N1CCN(C(=O)c2ccc(COc3ccc4c(c3)C/C(=C\c3cc(Cl)cc(Cl)c3)C4=O)cc2)CC1 [Compound 121] |
| < 50 | CS(=O)(=O)c1ccc(COc2ccc3c(c2)C/C(=C\c2cc(Cl)cc(Cl)c2)C3=O)cc1 [Compound 122] |
| < 50 | CNS(=O)(=O)c1ccc(COc2ccc3c(c2)C/C(=C\c2cc(Cl)cc(Cl)c2)C3=O)cc1 [Compound 123] |
| < 50 | CS(=O)(=O)Cc1ccc(COc2ccc3c(c2)C/C(=C\c2cc(Cl)cc(Cl)c2)C3=O)cc1 [Compound 124] |
| > 80 | CS(=O)(=O)NC(=O)c1ccc(COc2ccc3c(c2)C/C(=C\c2cc(Cl)cc(Cl)c2)C3=O)cc1 [Compound 125] |
| < 50 | CS(=O)(=O)c1ccc(COc2ccc3c(c2)C/C(=C\c2ccc(F)c(Cl)c2)C3=O)cc1 [Compound 126] |
| 50 to 80 | CONC(=O)c1ccc(COc2ccc3c(c2)C/C(=C\c2cc(Cl)cc(Cl)c2)C3=O)cc1 [Compound 127] |
| 50 to 80 | O=C(NO)c1ccc(COc2ccc3c(c2)C/C(=C\c2cc(Cl)cc(Cl)c2)C3=O)cc1 [Compound 128] |
